Experiments:
[1] = Peptide solubility in water
Experimental: (PA) (Table 1) were synthesized by New England Peptide (Gardner, MA) to >90% purity. Sarcosine variants and PEG were dissolved in water and the pH was adjusted with NaOH. PA was dissolved in DMSO and then brought up to the final concentration with water resulting in 30% DMSO and pH adjusted. Antibody sensitized sheep erythrocytes (EA), purified C1q and factor B-depleted human sera were purchased from Complement Technology (Tyler, TX). Purified myeloperoxidase was purchased from Lee BioSolutions (Maryland Heights, MO) and tetramethylbenzidine (TMB) and PicoGreen were purchased from Thermo Fisher (Waltham MA).
(PA), peptide derivatives were synthesized with sarcosine residues substituted at all 15 positions, included a peptide in which the vicinal cysteines at positions 9 and 10 (C9,C10) were replaced with a single sarcosine residue (Table 1).

[2] = test system: antibody-initiated complement activation (type O sera + type AB red blood cells); assay: ABO incompatibility hemolytic assay (CH50-type, ex vivo); assay type: cell-based, human; details: peptides 1.8 mM
Experimental: For hemolytic complement assays, human red blood cells (RBCs) from type AB donors were purified, washed and standardized to 1 × 10^9 cells/ml, as previously described. Human sera from type O donors at a 20% final concentration was combined with 1 mM PIC1 or sarcosine variant peptides and the volume was brought up to 0.15 ml with GVBS^++ and 0.5 ml RBCs. For factor B-depleted sera hemolytic assays, a final of 0.005% factor B depleted sera was incubated with 1 mM PIC1 or sarcosine variant peptides with 0.1 ml antibody-sensitized sheep red blood cells (EA) in a final volume of 0.75 ml GVBS^++. The samples were incubated for 1 hour at 37 °C and then 1.0 ml of GVBS^-—was added to the factor B-depleted samples to stop the reaction. The samples were spun at 3,000 rpm for 5 minutes and the supernatant was collected and read at 412 nm. Values are represented as a percent of the positive control, which consists of human O sera and AB red blood cells in GVBS^++ buffer.
In order to evaluate the extent to which the peptide variants inhibit antibody-initiated complement activation, we tested them in two hemolytic assays including an ABO incompatibility ex vivo assay (Fig 1A) and a classical pathway CH50-type assay in factor B-depleted sera (Fig 1B). In the ABO incompatibility hemolytic assay, purified erythrocytes from a ‘type AB+’ donor are incubated with sera from a ‘type O’ subject containing anti-A and anti-B antibodies; peptides were tested at 1.8 mM. […] We then performed a CH50-type hemolytic assay, with antibody-sensitized sheep erythrocytes, isolating the classical pathway by utilizing factor B-depleted sera; peptides were tested at 0.4 mM.
Fig 1 Sarcosine variant inhibition of complement activation in hemolytic assays and C1q binding. A) Inhibition of ABO incompatibility hemolysis in a CH50-type assay. Peptides are at a final concentration of 1.8 mM. […] Data are the means of n = 4 independent experiments + SEM. B) Inhibition of classical complement pathway-mediated hemolysis in factor B-depleted sera in a CH50-type assay. Peptides are at a final concentration of 0.4 mM. Data are the means of n = 4 independent experiments + SEM. C) Binding of increasing concentrations of sarcosine variants to purified C1q in an ELISA-type assay. Data are the means of n = 3 independent experiments ± SEM. D) Half-maximal binding concentrations were calculated for each peptide’s binding curve.

MPO heme ring = target: T1, MPO heme ring (Homo sapiens, UniProt P05164); assay: MPO heme ring oxidative degradation; assay type: biochemical; details: peptides 3.0 mM, H2O2, absorbance 300-550 nm
T1 construct: purchased Lee BioSolutions (Maryland Heights, MO)
T1 sequence (P05164 49-745): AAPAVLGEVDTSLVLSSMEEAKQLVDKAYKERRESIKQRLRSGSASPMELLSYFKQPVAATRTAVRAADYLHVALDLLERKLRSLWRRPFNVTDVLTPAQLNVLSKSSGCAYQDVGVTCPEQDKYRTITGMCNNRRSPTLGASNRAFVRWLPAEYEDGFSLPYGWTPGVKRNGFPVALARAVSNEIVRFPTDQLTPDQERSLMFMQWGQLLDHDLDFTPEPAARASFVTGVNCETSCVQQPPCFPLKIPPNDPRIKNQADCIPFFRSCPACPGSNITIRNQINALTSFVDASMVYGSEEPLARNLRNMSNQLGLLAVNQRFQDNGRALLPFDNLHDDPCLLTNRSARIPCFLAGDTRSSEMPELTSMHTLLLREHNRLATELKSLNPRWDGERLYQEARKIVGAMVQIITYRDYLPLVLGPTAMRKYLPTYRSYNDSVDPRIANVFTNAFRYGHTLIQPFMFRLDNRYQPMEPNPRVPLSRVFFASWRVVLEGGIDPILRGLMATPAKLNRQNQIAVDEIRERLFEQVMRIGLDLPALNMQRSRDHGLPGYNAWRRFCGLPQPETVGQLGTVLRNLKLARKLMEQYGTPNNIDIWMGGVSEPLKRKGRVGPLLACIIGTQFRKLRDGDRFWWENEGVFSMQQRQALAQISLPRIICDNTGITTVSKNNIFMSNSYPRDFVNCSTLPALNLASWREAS
Experimental: In a 96 well plate, 0.025 ml of 1.7 mg/ml MPO was combined with 0.00125 ml of 0.5% H2O2 and 3 mM PIC1 or sarcosine variant peptides in a total volume of 0.125 ml PBS and left to incubate at room temperature for 2 minutes. Using a 96 well plate reader, the wells were scanned for absorbance from 300–550 nm to generate curves reflecting the iron state in the MPO heme ring, as previously reported.
We then evaluated the ability of the variants to prevent degradation of the heme ring in the MPO molecule. […] This can be evaluated via spectrometric measurements of absorption of wavelengths from 300–550 nm. Absorption measurements were made over this spectrum for all variants (Fig 3A–3H). […] The heme ring preservation for these two variants was greater than that for the parent compound, PA-dPEG24.
Fig 3 Sarcosine variant protection of MPO heme ring from oxidative degradation. Absorbance spectra for the heme ring is shown in the absence of hydrogen peroxide (MPO) in red, in the presence of hydrogen peroxide (MPO+H2O2) in black, in the presence of peptide in blue, and in the presence of hydrogen peroxide and peptide together in green. […] B-H) Peptides A2 – C9,10 are denoted in the legends. Peptides were tested at a concentration of 3.0 mM.

[3] = Total Antioxidant Capacity (TAC) assay
Experimental: The TAC (Total Antioxidant Capacity) Assay (Cell Biolabs, Inc, San Diego, CA) was used to measure the antioxidant capacity of the sarcosine variants based on the reduction of copper (II) to copper (I). The kit protocol was performed as recommended.
Antioxidant activity is measured in copper reducing equivalents (CRE). Peptides were tested over a range of concentrations from 0.03–0.25 mM then compared to the standard. Data are the means of n = 3 independent experiments + SEM.

[4] = test system: purified human neutrophils; assay: NETosis assay, free DNA by PicoGreen; assay type: cell-based; details: Average of n = 3; peptide 2 mM
Experimental: NETosis assays with immune complexes were performed as previously described. Briefly, normal human serum was stimulated with ovalbumin-antiovalbumin immune complexes in GVBS^++ for 30 minutes at 37 °C. This mixture along with 0.05% H2O2 was then added to purified human neutrophils resuspended in RPMI with or without sarcosine variants (2 mM), allowing NETosis to occur. Quantitation of free DNA released from the neutrophils was performed using PicoGreen. Slides were stained with DAPI (Southern Biotech, Birmingham, AL) and the following antibodies, mouse anti-elastase (Invitrogen, Carlsbad, CA) was used with the secondary goat anti-mouse Alexa Fluor 568 (Novus Biologicals, Centennial, CO) and rabbit anti-histone H3 (Abcam, Cambridge MA) with goat anti-rabbit Alexa Fluor 488 (Novus Biologicals) to visualize formation of NETs which were imaged with fluorescence microscopy with an Olympus BX53 microscope.
In this assay purified human neutrophils are stimulated with normal human serum activated with ovalbumin-antiovalbumin immune complexes and hydrogen peroxide. Free DNA expressed from the neutrophils is then measured in a PicoGreen assay.
Fig 5 Sarcosine variant inhibition of NET formation. Fluorescence microscopy images of NET formation after neutrophil stimulation with immune complexes (IC) and hydrogen peroxide (H2O2) compared with neutrophil only control. Variant I8 inhibition of NET formation is shown in the third row. Histones are probed with anti-histone antibody (αhistone), neutrophil elastase is probed with anti-neutrophil elastase (αNE) and DNA is stained with DAPI. Representative images are shown. […] Purified human neutrophils were stimulated with 2% normal human sera pre-incubated with ovalbumin-antiovalbumin immune complexes, and 0.05% H2O2. Sarcosine peptides and PIC1 were added to the sera to a final concentration of 2 mM. Data are the means of n = 3 independent experiments + SEM.

What does the source list for `CC[C@H](C)[C@H](N)C(=O)N[C@@H](C)C(=O)N[C@@H](CC(C)C)C(=O)N[C@H](C(=O)N[C@@H](CC(C)C)C(=O)N[C@@H](CCC(=O)O)C(=O)N1CCC[C@H]1C(=O)N[C@H](C(=O)N(C)CC(=O)N[C@@H](CS)C(=O)N[C@@H](CCC(N)=O)C(=O)N[C@@H](CCC(=O)O)C(=O)N[C@@H](CCCNC(=N)N)C(=O)N[C@@H](C)C(=O)N[C@@H](C)C(=O)O)[C@@H](C)CC)[C@@H](C)CC` [C9]?
solubility in water (in words) [1]: soluble in water; ABO hemolysis ([2]; Avg of n = 4, concentration basis of PIC1 not stated): 18.25 % of Control; inhibition of ABO incompatible hemolysis (in words) [2]: to a greater extent than did the PA-dPEG24; protection of MPO heme ring from degradation (in words) (MPO heme ring): near perfect preservation; TAC assay, antioxidant activity ([3]; Avg of n = 3): 845.83 copper reducing equivalents (CRE); antioxidant capacity (in words) ([3]; TAC assay): approximately half of the antioxidant capacity as PA-dPEG24; PICO green - NETs, free DNA release [4]: 38

Reference: PMC6938345, “Inhibition of complement activation, myeloperoxidase, NET formation and oxidant activity by PIC1 peptide variants” (PLoS ONE, 2019)
